Experimental data published in patent publication US6465457B1 (priority 1991, dated 2002).
Where two headings read alike, the source gives them in different places.

Experiments:
Assay type in all cases: in vivo
[1] = system: Erysiphe graminis tritici (Wheat); test: Foliar fungal disease test on plants: Erysiphe graminis tritici (Wheat); details: plants inoculated 24 hours before treatment
[2] = system: Venturia inaequalis (Apples); test: Foliar fungal disease test on plants: Venturia inaequalis (Apples); details: one or two days before inoculation
[3] = system: Plasmopara viticola (Vines); test: Foliar fungal disease test on plants: Plasmopara viticola (Vines); details: one or two days before inoculation
Septoria nodorum (Wheat) = test: Foliar fungal disease test on plants: Septoria nodorum (Wheat); details: one or two days before inoculation
[4] = system: Phytophthora infestans (Tomatoes); details: one or two days before inoculation
[5] = system: Pyricularia oryzae (Rice); details: one or two days before inoculation
[6] = system: Thanatephorus cucumeries (Rice); test: Foliar fungal disease test on plants: Thanatephorus cucumeries (Rice); details: one or two days before inoculation
[7] = system: Puccinia recondita (Wheat); test: Foliar fungal disease test on plants: Puccinia recondita (Wheat); details: plants inoculated with Puccinia recondita 48 hours before treatment
Procedure: The compounds were tested against a variety of foliar fungal diseases of plants. The technique employed was as follows.
The plants were grown in John Innes Potting Compost (No 1 or 2) in 4 cm diameter minipots. The test compounds were formulated either by bead milling with aqueous DISPERSOL T or as a solution in acetone or acetone/ethanol which was diluted to the required concentration immediately before use. The formulations (100 ppm active ingredient) were sprayed on to the foliage or applied to the roots of the plants in the soil. The sprays were applied to maximum retention and the root drenches to a final concentration equivalent to approximately 40 ppm a.i. in dry soil. TWEEN 20 was added to give a final concentration of 0.05% when the sprays were applied to cereals.
[…] An exception was the test on Erysiphe graminis in which the plants were inoculated 24 hours before treatment. Foliar pathogens were applied by spray as zoosporangial suspensions onto the leaves of test plants. After inoculation, the plants were put into an appropriate environment to allow infection to proceed and then incubated until the disease was ready for assessment. The period between inoculation and assessment varied from four to fourteen days according to the disease and environment.
The disease level present (i.e. leaf area covered by actively sporulating disease) on each of the treated plants was recorded using the following assessment scale:
Each assessment was then expressed as a percentage of the level of disease present on the untreated control plants. This calculated value is referred to as a POCO (Percentage of Control) value. An example of a typical calculation is as follows:
Disease level on untreated control=90
Disese level on treated plant=30 [formula]
This calculated POCO value is then rounded to the nearest of the values in the 9-point assessment scale shown above. In this particular example, the POCO value would be rounded to 30. If the calculated POCO falls exactly mid-way between two of the points, it is rounded to the lower of the two values.

[8] = 100 ppm a.i. foliar spray or root drench (approx. 40 ppm in dry soil)
[9] = 100 ppm a.i. foliar spray or root drench

| Compound | POCO (Percentage of Control) disease level, Erysiphe graminis tritici (Wheat) ([1]; 10 ppm foliar spray only) | POCO (Percentage of Control) disease level, Venturia inaequalis (Apples) ([2]; 10 ppm foliar spray only) | POCO (Percentage of Control) disease level, Plasmopara viticola (Vines) ([3]; 10 ppm foliar spray only) | POCO (Percentage of Control) disease level, Septoria nodorum (Wheat) (Septoria nodorum (Wheat); 10 ppm foliar spray only) | POCO (Percentage of Control) disease level, Phytophthora infestans (Tomatoes) ([4]; 10 ppm foliar spray only) | POCO (Percentage of Control) disease level, Pyricularia oryzae (Rice) ([5]; 10 ppm foliar spray only) | POCO (Percentage of Control) disease level, Thanatephorus cucumeries (Rice) ([6]; 10 ppm foliar spray only) | POCO (Percentage of Control) disease level, Puccinia recondita (Wheat) ([7]; 10 ppm foliar spray only) | POCO (Percentage of Control) disease level, Erysiphe graminis tritici (Wheat) [1, 8] | POCO (Percentage of Control) disease level, Venturia inaequalis (Apples) [2, 8] | POCO (Percentage of Control) disease level, Plasmopara viticola (Vines) [3, 8] | POCO (Percentage of Control) disease level, Septoria nodorum (Wheat) (Septoria nodorum (Wheat); [8]) | POCO (Percentage of Control) disease level, Phytophthora infestans (Tomatoes) [4, 8] | POCO (Percentage of Control) disease level, Pyricularia oryzae (Rice) [5, 8] | POCO (Percentage of Control) disease level, Thanatephorus cucumeries (Rice) [6, 8] | POCO (Percentage of Control) disease level, Puccinia recondita (Wheat) [7, 9] |
| --- | --- | --- | --- | --- | --- | --- | --- | --- | --- | --- | --- | --- | --- | --- | --- | --- |
| COC=C(C(=O)OC)c1ccccc1COC(=O)N(CC(F)F)c1cccc([N+](=O)[O-])c1 [6 (5)] | 20 (20 and 24 = 10.1-20% disease present) | 0 (0 = 0% disease present) | 90 (90 and 94 = 60.1-100% disease present) | 90 (90 and 94 = 60.1-100% disease present) | 90 (90 and 94 = 60.1-100% disease present) | 60 (60 = 30.1-60% disease present) | 90 (90 and 94 = 60.1-100% disease present) | 90+ (90 and 94 = 60.1-100% disease present) |  |  |  |  |  |  |  |  |
| CCN(C(=O)OCc1ccccc1C(=COC)C(=O)OC)c1cc(F)ccc1F [27 (3)] |  |  |  |  |  |  |  |  | 0 (0 = 0% disease present) | 0 (0 = 0% disease present) | 0 (0 = 0% disease present) | 30 (30 = 20.1-30% disease present) | 20 (20 and 24 = 10.1-20% disease present) | 0 (0 = 0% disease present) | 0 (0 = 0% disease present) | 0+ (0 = 0% disease present) |
| COC=C(C(=O)OC)c1ccccc1COC(=O)Nc1ccc(F)c(Cl)c1 [104 (1)] |  |  |  |  |  |  |  |  | 90 (90 and 94 = 60.1-100% disease present) | 90 (90 and 94 = 60.1-100% disease present) | 60 (60 = 30.1-60% disease present) | 90 (90 and 94 = 60.1-100% disease present) | 90 (90 and 94 = 60.1-100% disease present) | 90 (90 and 94 = 60.1-100% disease present) | 90 (90 and 94 = 60.1-100% disease present) | 90+ (90 and 94 = 60.1-100% disease present) |
| COC=C(C(=O)OC)c1ccccc1COC(=O)Nc1cccc(F)c1 [8 (1)] | 60 (60 = 30.1-60% disease present) | 0 (0 = 0% disease present) | 90 (90 and 94 = 60.1-100% disease present) | 90 (90 and 94 = 60.1-100% disease present) | 90 (90 and 94 = 60.1-100% disease present) | 10 (10 = 5.1-10% disease present) | 90 (90 and 94 = 60.1-100% disease present) | 0+ (0 = 0% disease present) |  |  |  |  |  |  |  |  |
| CCN(C(=O)OCc1ccccc1C(=COC)C(=O)OC)c1ccc(F)cc1F [24 (3)] |  |  |  |  |  |  |  |  | 0 (0 = 0% disease present) | 0 (0 = 0% disease present) | 0 (0 = 0% disease present) | 0 (0 = 0% disease present) | 60 (60 = 30.1-60% disease present) | 10 (10 = 5.1-10% disease present) | 0 (0 = 0% disease present) | 0+ (0 = 0% disease present) |
| COC=C(C(=O)OC)c1ccccc1COC(=O)N(C)c1ccccc1OC [16 (2)] |  |  |  |  |  |  |  |  | 0 (0 = 0% disease present) | 1 (1 = 0.1-1% disease present) | 0 (0 = 0% disease present) | 5 (5 = 3.1-5% disease present) | 20 (20 and 24 = 10.1-20% disease present) | 0 (0 = 0% disease present) | 5 (5 = 3.1-5% disease present) | 10+ (10 = 5.1-10% disease present) |
| COC=C(C(=O)OC)c1ccccc1COC(=O)Nc1ccccc1Cl [12 (1)] |  |  |  |  |  |  |  |  | 0 (0 = 0% disease present) | 0 (0 = 0% disease present) | 0 (0 = 0% disease present) | 10 (10 = 5.1-10% disease present) | 30 (30 = 20.1-30% disease present) | 5 (5 = 3.1-5% disease present) | 30 (30 = 20.1-30% disease present) | 10+ (10 = 5.1-10% disease present) |
| COC=C(C(=O)OC)c1ccccc1COC(=O)N(C)c1ccc(F)c(Cl)c1 [104 (2)] |  |  |  |  |  |  |  |  | 0 (0 = 0% disease present) | 0 (0 = 0% disease present) | 0 (0 = 0% disease present) | 0 (0 = 0% disease present) | 10 (10 = 5.1-10% disease present) | 0 (0 = 0% disease present) | 0 (0 = 0% disease present) | 0+ (0 = 0% disease present) |
| COC=C(C(=O)OC)c1ccccc1COC(=O)N(C)c1c(F)cccc1F [23 (2)] |  |  |  |  |  |  |  |  | 0 (0 = 0% disease present) | 0 (0 = 0% disease present) | 0 (0 = 0% disease present) | 0 (0 = 0% disease present) | 0 (0 = 0% disease present) | 0 (0 = 0% disease present) | 0 (0 = 0% disease present) | 0+ (0 = 0% disease present) |
| COC=C(C(=O)OC)c1ccccc1COC(=O)N(C)c1ccccc1Cl [12 (2)] |  |  |  |  |  |  |  |  | 0 (0 = 0% disease present) | 0 (0 = 0% disease present) | 0 (0 = 0% disease present) | 3 (3 = 1.1-3% disease present) | 5 (5 = 3.1-5% disease present) | 10 (10 = 5.1-10% disease present) | 0 (0 = 0% disease present) | 30+ (30 = 20.1-30% disease present) |
